Test results as given in ChEMBL document CHEMBL1139651, “Antiarrhythmic activity of 4,6-di(het)aryl-5-nitro-3,4-dihydropyrimidin-(1H)-2-ones and its effects on arterial pressure in rats” (2006).

Tested on: Rattus norvegicus
Assay: Antiarrhythmic activity in iv dosed rat
Assay type: functional
Details: Heart; for minimal effective dose: read-out: MED

| SMILES | LD50 | minimal effective dose | ED50 |
| --- | --- | --- | --- |
| O=C1NC(c2ccccc2)=C([N+](=O)[O-])C(c2ccccc2)N1 (stereo not given) | > 5000 mg/kg | 35 µg/kg |  |
| O=C1NC(c2ccccc2)=C([N+](=O)[O-])C(c2cccc([N+](=O)[O-])c2)N1 (stereo not given) | > 1000 mg/kg | 0.045 µg/kg |  |
| COC(=O)C1=C(C)NC(C)=C(C(=O)OC)C1c1ccccc1[N+](=O)[O-] [NIFEDIPINE] | 210 mg/kg | 3500 µg/kg |  |
| O=C1NC(c2ccccc2)=C([N+](=O)[O-])C(c2cccs2)N1 (stereo not given) | > 1000 mg/kg | 3500 µg/kg |  |
| COc1ccc(CCN(C)CCCC(C#N)(c2ccc(OC)c(OC)c2)C(C)C)cc1OC (stereo not given) |  |  | 1.1 mg/kg |
| O=C1NC(c2ccccc2)=C([N+](=O)[O-])C(c2cccc(F)c2)N1 (stereo not given) | > 5000 mg/kg | 0.35 µg/kg |  |
| O=C1NC(c2ccccc2)=C([N+](=O)[O-])C(c2cccnc2)N1 (stereo not given) | > 1000 mg/kg | 35 µg/kg |  |
| O=C1NC(c2ccccc2)=C([N+](=O)[O-])C(c2ccc(O)cc2)N1 (stereo not given) | > 5000 mg/kg | 35 µg/kg |  |
